Active and inactive are the calls of the source. No rule for the calls is given here.
System: rodent carcinogenicity bioassays, tumor incidence
Assay: CCRIS carcinogenicity studies
Method in brief: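 Archive of carcinogenicity, mutagenicity, tumor promotion and tumor inhibition results drawn from journals, NCI reports and other sources, expert-reviewed; covers 1985-2011 and is no longer updated.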

COc1cc(OC)nc(NC(=O)NS(=O)(=O)c2cc(NC=O)ccc2C(=O)N(C)C)n1
carcinogen call (Species: Mouse, Strain/Sex: Crl:CD-1(ICR)BR/Female (51/Group), Route: Oral, Dose: 0, 40, 800, 8000 ppm of 94.6% foramsulfuron in diet for 80 wk, study duration 80 wk, Dose: 0, 40, 800, 8000 ppm of 94.6% foramsulfuron in diet for 80 wk, study duration 80 wk): inactive; negative | carcinogen call (Species: Mouse, Strain/Sex: Crl:CD-1(ICR)BR/Male (51/Group), Route: Oral, Dose: 0, 40, 800, 8000 ppm of 94.6% foramsulfuron in diet for 80 wk, study duration 80 wk, Dose: 0, 40, 800, 8000 ppm of 94.6% foramsulfuron in diet for 80 wk, study duration 80 wk): inactive; negative | carcinogen call (Species: Rat, Strain/Sex: Sprague Dawley CRL:CD (IGS) BR/Female (50/Group), Route: Oral, Dose: 0, 100, 600, 6000, 20,000 ppm of 94.6% foramsulfuron in diet for 104 wk, study duration 104 wk, Dose: 0, 100, 600, 6000, 20,000 ppm of 94.6% foramsulfuron in diet for 104 wk, study duration 104 wk): inactive; negative | carcinogen call (Species: Rat, Strain/Sex: Sprague Dawley CRL:CD (IGS) BR/Male (50/Group), Route: Oral, Dose: 0, 100, 600, 6000, 20,000 ppm of 94.6% foramsulfuron in diet for 104 wk, study duration 104 wk, Dose: 0, 100, 600, 6000, 20,000 ppm of 94.6% foramsulfuron in diet for 104 wk, study duration 104 wk): inactive; negative

O=NN1CCC(=O)CC1
carcinogen call (Species: RAT, Strain/Sex: F344/FEMALE, Route: ORAL, Dose: 0, 80 ML OF SOLUTION OF 115 MG/L IN NEUTRAL DEIONIZED DRINKING WATER 5 D/WK FOR 30 WK (STUDY DURATION: 60 WK), Tumor Site: Type of Lesion: NASAL CAVITY: ESTHESIONEUROEPITHELIOMA, FORESTOMACH: TUMOR, ESOPHAGUS: TUMOR, TONGUE: TUMOR, LIVER: HEPATOCELLULAR CARCI, Tumor Site: Type of Lesion: NASAL CAVITY: ESTHESIONEUROEPITHELIOMA, FORESTOMACH: TUMOR, ESOPHAGUS: TUMOR, TONGUE: TUMOR, LIVER: HEPATOCELLULAR CARCI): active; positive

COc1cccc2c1C(=O)c1c(O)c3c(c(O)c1C2=O)C[C@@](O)(C(C)=O)C[C@@H]3O[C@H]1C[C@H](N)[C@H](O)[C@H](C)O1
carcinogen call (Species: RAT, Strain/Sex: SPRAGUE-DAWLEY/FEMALE, Route: INTRAVENOUS, Dose: 0, 10 MG/KG IN SALINE ONCE (STUDY DURATION: 244 D) (STUDY DURATION: 244 D), Tumor Site: Type of Lesion: MAMMARY GLAND: TUMOR): active; positive | carcinogen call (Species: RAT, Strain/Sex: SPRAGUE-DAWLEY/FEMALE, Route: INTRAVENOUS, Dose: 0, 10 MG/KG IN SALINE SOLUTION ONCE (STUDY DURATION: 1 YR), Tumor Site: Type of Lesion: MAMMARY GLAND: ADENOCARCINOMA): active; positive | carcinogen call (Species: RAT, Strain/Sex: SPRAGUE-DAWLEY/FEMALE, Route: SUBCUTANEOUS, Dose: 0, 2, 4, 8 UG IN 100 µL SALINE INTO THORACIC AND ABDOMINAL MAMMARY GLANDS ONCE (STUDY DURATION: 6.5 MO), Dose: 0, 2, 4, 8 UG IN 100 µL SALINE INTO THORACIC AND ABDOMINAL MAMMARY GLANDS ONCE (STUDY DURATION: 6.5 MO), Tumor Site: Type of Lesion: MAMMARY GLAND: TUMOR): active; positive | carcinogen call (Species: RAT, Strain/Sex: SPRAGUE-DAWLEY/MALE, Route: INTRAVENOUS, Dose: 0, 10 MG/KG IN SALINE SOLUTION ONCE (STUDY DURATION: 1 YR), Tumor Site: Type of Lesion: MAMMARY GLAND: ADENOCARCINOMA): active; positive

OCC1CO1 (configuration not stated)
carcinogen call (Species: MOUSE, Strain/Sex: B6C3F1/FEMALE, Route: GAVAGE, Dose: 0, 25, 50 MG/KG IN DISTILLED WATER 5 D/WK FOR 103 WK (STUDY DURATION: 105 WK), Dose: 0, 25, 50 MG/KG IN DISTILLED WATER 5 D/WK FOR 103 WK (STUDY DURATION: 105 WK), Tumor Site: Type of Lesion: SUBCUTANEOUS TISSUE: SARCOMA, SARCOMA OR FIBROSARCOMA, MAMMARY GLAND: ADENOCARCINOMA, ADENOMA OR FIBROADENOMA OR ADENOCA): active; positive | carcinogen call (Species: MOUSE, Strain/Sex: B6C3F1/MALE, Route: GAVAGE, Dose: 0, 25, 50 MG/KG IN DISTILLED WATER 5 D/WK FOR 103 WK (STUDY DURATION: 105 WK), Dose: 0, 25, 50 MG/KG IN DISTILLED WATER 5 D/WK FOR 103 WK (STUDY DURATION: 105 WK), Tumor Site: Type of Lesion: SKIN: SQUAMOUS CELL PAPILLOMA, LUNG: ALVEOLAR/BRONCHIOLAR ADENOMA OR CARCINOMA, LIVER: HEPATOCELLULAR ADENOMA, HEPATOCEL, Tumor Site: Type of Lesion: SKIN: SQUAMOUS CELL PAPILLOMA, LUNG: ALVEOLAR/BRONCHIOLAR ADENOMA OR CARCINOMA, LIVER: HEPATOCELLULAR ADENOMA, HEPATOCEL): active; positive | carcinogen call (Species: RAT, Strain/Sex: F344/FEMALE, Route: GAVAGE, Dose: 0, 37.5, 75 MG/KG IN DISTILLED WATER 5 D/WK FOR 103 WK (STUDY DURATION: 104 WK), Dose: 0, 37.5, 75 MG/KG IN DISTILLED WATER 5 D/WK FOR 103 WK (STUDY DURATION: 104 WK), Tumor Site: Type of Lesion: HEMATOPOIETIC SYSTEM: MONONUCLEAR CELL LEUKEMIA, ORAL CAVITY (MOUTH OR TONGUE): SQUAMOUS CELL PAPILLOMA OR CARCINOMA, FO, Tumor Site: Type of Lesion: HEMATOPOIETIC SYSTEM: MONONUCLEAR CELL LEUKEMIA, ORAL CAVITY (MOUTH OR TONGUE): SQUAMOUS CELL PAPILLOMA OR CARCINOMA, FO): active; positive | carcinogen call (Species: RAT, Strain/Sex: F344/MALE, Route: GAVAGE, Dose: 0, 37.5, 75 MG/KG IN DISTILLED WATER 5 D/WK FOR 103 WK (STUDY DURATION: 104 WK), Dose: 0, 37.5, 75 MG/KG IN DISTILLED WATER 5 D/WK FOR 103 WK (STUDY DURATION: 104 WK), Tumor Site: Type of Lesion: SKIN: SEBACEOUS GLAND ADENOMA OR BASAL CELL TUMOR OR SEBACEOUS GLAND ADENOCARCINOMA, FORESTOMACH: SQUAMOUS CELL PAPILLOM): active; positive

O=c1ccc2ccccc2o1
carcinogen call (Species: MOUSE, Strain/Sex: B6C3F1/FEMALE, Route: GAVAGE, Dose: 0, 50, 100, 200 MG/KG BW IN CORN OIL 1/D 5 D/WK FOR 103 WK (STUDY DURATION: 103 WK), Dose: 0, 50, 100, 200 MG/KG BW IN CORN OIL 1/D 5 D/WK FOR 103 WK (STUDY DURATION: 103 WK), Tumor Site: Type of Lesion: LIVER: HEPATOCELLULAR ADENOMA, HEPATOCELLULAR ADENOMA OR CARCINOMA, LUNG: ALVEOLAR/BRONCHIOLAR ADENOMA, ALVEOLAR/BRONCHI): active; positive | carcinogen call (Species: MOUSE, Strain/Sex: B6C3F1/MALE, Route: GAVAGE, Dose: 0, 50, 100, 200 MG/KG BW IN CORN OIL 1/D 5 D/WK FOR 103 WK (STUDY DURATION: 103 WK), Dose: 0, 50, 100, 200 MG/KG BW IN CORN OIL 1/D 5 D/WK FOR 103 WK (STUDY DURATION: 103 WK), Tumor Site: Type of Lesion: LUNG: ALVEOLAR/BRONCHIOLAR ADENOMA, ALVEOLAR/BRONCHIOLAR ADENOMA OR CARCINOMA): active; positive | carcinogen call (Species: MOUSE, Strain/Sex: CD-1/FEMALE, Route: ORAL, Dose: 0, 300, 1000, 3000 PPM IN DIET FOR THE DURATION OF STUDY (STUDY DURATION: 109 WK), Dose: 0, 300, 1000, 3000 PPM IN DIET FOR THE DURATION OF STUDY (STUDY DURATION: 109 WK)): inactive; negative | carcinogen call (Species: MOUSE, Strain/Sex: CD-1/MALE, Route: ORAL, Dose: 0, 300, 1000, 3000 PPM IN DIET FOR THE DURATION OF STUDY (STUDY DURATION: 101 WK), Dose: 0, 300, 1000, 3000 PPM IN DIET FOR THE DURATION OF STUDY (STUDY DURATION: 101 WK)): inactive; negative | carcinogen call (Species: RAT, Route: ORAL, Tumor Site: Type of Lesion: BILE DUCT): active; positive | carcinogen call (Species: RAT, Strain/Sex: F344/FEMALE, Route: GAVAGE, Dose: 0, 25, 50, 100 MG/KG BW IN CORN OIL 1/D 5 D/WK FOR 103 WK (STUDY DURATION: 103 WK), Dose: 0, 25, 50, 100 MG/KG BW IN CORN OIL 1/D 5 D/WK FOR 103 WK (STUDY DURATION: 103 WK), Tumor Site: Type of Lesion: KIDNEY (RENAL TUBULE): ADENOMA): equivocal | carcinogen call (Species: RAT, Strain/Sex: F344/MALE, Route: GAVAGE, Dose: 0, 25, 50, 100 MG/KG BW IN CORN OIL 1/D 5 D/WK FOR 103 WK (STUDY DURATION: 103 WK), Dose: 0, 25, 50, 100 MG/KG BW IN CORN OIL 1/D 5 D/WK FOR 103 WK (STUDY DURATION: 103 WK), Tumor Site: Type of Lesion: KIDNEY (RENAL TUBULE): ADENOMA): active; positive | carcinogen call (Species: RAT, Strain/Sex: SPRAGUE-DAWLEY/FEMALE, Route: ORAL, Dose: 0, 333, 1000, 2000 PPM IN DIET FOR DURATION OF STUDY ADMINISTERED TO RATS EXPOSED TO THE SAME DOSES DURING GESTATION AND, Dose: 0, 333, 1000, 2000 PPM IN DIET FOR DURATION OF STUDY ADMINISTERED TO RATS EXPOSED TO THE SAME DOSES DURING GESTATION AND, Tumor Site: Type of Lesion: LIVER: CHOLANGIOCARCINOMA, PARENCHYMAL TUMORS): active; positive | carcinogen call (Species: RAT, Strain/Sex: SPRAGUE-DAWLEY/MALE, Route: ORAL, Dose: 0, 333, 1000, 2000 PPM IN DIET FOR DURATION OF STUDY ADMINISTERED TO RATS EXPOSED TO THE SAME DOSES DURING GESTATION AND, Dose: 0, 333, 1000, 2000 PPM IN DIET FOR DURATION OF STUDY ADMINISTERED TO RATS EXPOSED TO THE SAME DOSES DURING GESTATION AND, Tumor Site: Type of Lesion: LIVER: CHOLANGIOCARCINOMA, PARENCHYMAL TUMORS): active; positive
